Reference: patent US11472791B2 (Incyte Corporation, priority 2019, dated 2022)

Each molecule was assayed against CDK2/Cyclin E1 (Homo sapiens (Human), UniProt P24941) (assay: CDK2/Cyclin E1 HTRF enzyme activity assay). Settings: 1 mM ATP.
Assay type: biochemical
Procedure: Assays are conducted in white 384-well polystyrene plates in a final reaction volume of 8 μL. […] HTRF signals are read after 1 hour at room temperature on a PHERAstar FS plate reader (BMG Labtech). Data is analyzed with IDBS XLFit and GraphPad Prism 5.0 software using a three or four parameter dose response curve to determine IC50 for each compound.

First: CS(=O)(=O)N1CCCC(Nc2ncc(C(F)(F)F)c(-c3cnn(C4CCOCC4)c3)n2)C1 (racemic) [Example 19, (±)-N-(1-(Methylsulfonyl)piperidin-3-yl)-4-(1-(tetrahydro-2H-pyran-4-yl)-1H-pyrazol-4-yl)-5-(trifluoromethyl)pyrimidin-2-amine]
Second: CS(=O)(=O)N1CCC(Nc2ncc(C(F)(F)F)c(-c3cnn(C4CCOCC4)c3)n2)CC1 [Example 3, N-(1-(Methylsulfonyl)piperidin-4-yl)-4-(1-(tetrahydro-2H-pyran-4-yl)-1H-pyrazol-4-yl)-5-(trifluoromethyl)pyrimidin-2-amine]
The IC50 of the first is higher: 0.5 to 1 µM for the first, under 0.05 µM for the second.

`C[C@H]1C[C@H](Nc2ncc(C(F)(F)F)c(-c3cnn(C4CCOCC4)c3)n2)CCN1S(C)(=O)=O` (racemic) [Example 21, (±)-N-((2S,4R)-2-Methyl-1-(methylsulfonyl)piperidin-4-yl)-4-(1-(tetrahydro-2H-pyran-4-yl)-1H-pyrazol-4-yl)-5-(trifluoromethyl)pyrimidin-2-amine] and `N#CCS(=O)(=O)N1CCC(Nc2ncc(C(F)(F)F)c(-c3cnn(C4CCOCC4)c3)n2)CC1` [Example 4, 2-((4-((4-(1-(Tetrahydro-2H-pyran-4-yl)-1H-pyrazol-4-yl)-5-(trifluoromethyl)pyrimidin-2-yl)amino)piperidin-1-yl)sulfonyl)acetonitrile] cannot be ordered by IC50: under 0.05 µM for the first, under 0.05 µM for the second.

`CN1CCC(S(=O)(=O)N2CCC(Nc3ncc(C(F)(F)F)c(-c4cnn(CC(C)(C)O)c4)n3)CC2)C1` (racemic) [Example 86, (±)-2-Methyl-1-(4-(2-((1-((1-methylpyrrolidin-3-yl)sulfonyl)piperidin-4-yl)amino)-5-(trifluoromethyl)pyrimidin-4-yl)-1H-pyrazol-1-yl)propan-2-ol] and `CN(C)C1CCC(S(=O)(=O)N2CCC(Nc3ncc(C(F)(F)F)c(-c4cnn(CC(C)(C)O)c4)n3)CC2)CC1` (single isomer, unassigned) [88 (peak 1), 1-(4-(2-((1-((4-(Dimethylamino)cyclohexyl)sulfonyl)piperidin-4-yl)amino)-5-(trifluoromethyl)pyrimidin-4-yl)-1H-pyrazol-1-yl)-2-methylpropan-2-ol] cannot be ordered by IC50: under 0.05 µM for the first, under 0.05 µM for the second.

`CC(O)(Cn1cc(-c2nc(NC3CCN(S(C)(=O)=O)CC3)ncc2C(F)(F)F)cn1)C(F)(F)F` (racemic) [Example 95, (±)-1,1,1-Trifluoro-2-methyl-3-(4-(2-((1-(methylsulfonyl)piperidin-4-yl)amino)-5-(trifluoromethyl)pyrimidin-4-yl)-1H-pyrazol-1-yl) propan-2-ol] and `O=S(=O)(c1cn[nH]c1)N1CCC(Nc2ncc(C(F)(F)F)c(-c3cnn(CC(F)(F)F)c3)n2)CC1` [Example 2, N-(1-((1H-Pyrazol-4-yl)sulfonyl)piperidin-4-yl)-4-(1-(2,2,2-trifluoroethyl)-1H-pyrazol-4-yl)-5-(trifluoromethyl)pyrimidin-2-amine] cannot be ordered by IC50: under 0.05 µM for the first, under 0.05 µM for the second.

`CS(=O)(=O)N1CCC(Nc2ncc(C#N)c(-c3cnn(-c4ccc(CNC5CCN(S(C)(=O)=O)C5)cc4Cl)c3)n2)CC1` (racemic) [Example 198, (±)-4-(1-(2-Chloro-4-(((1-(methylsulfonyl)pyrrolidin-3-yl)amino)methyl)phenyl)-1H-pyrazol-4-yl)-2-((1-(methylsulfonyl)piperidin-4-yl)amino)pyrimidine-5-carbonitrile] and `CCS(=O)(=O)N1CCC(Nc2ncc(C#N)c(-c3cnn(-c4ccc(CN[C@@H]5CCCC[C@@]5(C)O)cc4Cl)c3)n2)CC1` (racemic) [Example 287, (±)-4-(1-(2-Chloro-4-((((1r,2r)-2-hydroxy-2-methylcyclohexyl)amino)methyl)phenyl)-1H-pyrazol-4-yl)-2-((1-(ethylsulfonyl)piperidin-4-yl)amino)pyrimidine-5-carbonitrile] cannot be ordered by IC50: under 0.05 µM for the first, under 0.05 µM for the second.

`CN(C)C1CCC(S(=O)(=O)N2CCC(Nc3ncc(C(F)(F)F)c(-c4cnn(CC(C)(C)O)c4)n3)CC2)CC1` (single isomer, unassigned) [88 (peak 2), 1-(4-(2-((1-((4-(Dimethylamino)cyclohexyl)sulfonyl)piperidin-4-yl)amino)-5-(trifluoromethyl)pyrimidin-4-yl)-1H-pyrazol-1-yl)-2-methylpropan-2-ol] and `CCN(CC)C1CCC(S(=O)(=O)N2CCC(Nc3ncc(C(F)(F)F)c(-c4cnn(CC(C)(C)O)c4)n3)CC2)CC1` (single isomer, unassigned) [89 (peak 1), 1-(4-(2-((1-((4-(Diethylamino)cyclohexyl)sulfonyl)piperidin-4-yl)amino)-5-(trifluoromethyl)pyrimidin-4-yl)-1H-pyrazol-1-yl)-2-methylpropan-2-ol] cannot be ordered by IC50: under 0.05 µM for the first, under 0.05 µM for the second.

`CCN(CC)C1CCC(S(=O)(=O)N2CCC(Nc3ncc(C(F)(F)F)c(-c4cnn(CC(C)(C)O)c4)n3)CC2)CC1` (single isomer, unassigned) [89 (peak 2), 1-(4-(2-((1-((4-(Diethylamino)cyclohexyl)sulfonyl)piperidin-4-yl)amino)-5-(trifluoromethyl)pyrimidin-4-yl)-1H-pyrazol-1-yl)-2-methylpropan-2-ol] and `CC(C)(O)Cn1cc(-c2nc(NC3CCN(S(=O)(=O)C4CCC(N5CCC5)CC4)CC3)ncc2C(F)(F)F)cn1` (single isomer, unassigned) [90 (peak 1), 1-(4-(2-((1-((4-(Azetidin-1-yl)cyclohexyl)sulfonyl)piperidin-4-yl)amino)-5-(trifluoromethyl)pyrimidin-4-yl)-1H-pyrazol-1-yl)-2-methylpropan-2-ol] cannot be ordered by IC50: under 0.05 µM for the first, under 0.05 µM for the second.

`CC(C)(O)Cn1cc(-c2nc(NC3CCN(S(=O)(=O)C4CCC(N5CCC5)CC4)CC3)ncc2C(F)(F)F)cn1` (single isomer, unassigned) [90 (peak 2), 1-(4-(2-((1-((4-(Azetidin-1-yl)cyclohexyl)sulfonyl)piperidin-4-yl)amino)-5-(trifluoromethyl)pyrimidin-4-yl)-1H-pyrazol-1-yl)-2-methylpropan-2-ol] and `CC(C)(O)Cn1cc(-c2nc(NC3CCN(S(=O)(=O)C4CCC(N5CCCC5)CC4)CC3)ncc2C(F)(F)F)cn1` (single isomer, unassigned) [91 (peak 1), 2-Methyl-1-(4-(2-((1-((4-(pyrrolidin-1-yl)cyclohexyl)sulfonyl)piperidin-4-yl)amino)-5-(trifluoromethyl)pyrimidin-4-yl)-1H-pyrazol-1-yl)propan-2-ol] cannot be ordered by IC50: under 0.05 µM for the first, under 0.05 µM for the second.

`CC(C)(O)Cn1cc(-c2nc(NC3CCN(S(=O)(=O)C4CCC(N5CCCC5)CC4)CC3)ncc2C(F)(F)F)cn1` (single isomer, unassigned) [91 (peak 2), 2-Methyl-1-(4-(2-((1-((4-(pyrrolidin-1-yl)cyclohexyl)sulfonyl)piperidin-4-yl)amino)-5-(trifluoromethyl)pyrimidin-4-yl)-1H-pyrazol-1-yl)propan-2-ol] and `O=S(=O)(C1CCOCC1)N1CCC(Nc2ncc(C(F)(F)F)c(-c3cnn(C4CCOCC4)c3)n2)CC1` [Example 6, 4-(1-(Tetrahydro-2H-pyran-4-yl)-1H-pyrazol-4-yl)-N-(1-((tetrahydro-2H-pyran-4-yl)sulfonyl)piperidin-4-yl)-5-(trifluoromethyl)pyrimidin-2-amine] cannot be ordered by IC50: under 0.05 µM for the first, under 0.05 µM for the second.

`O=S(=O)(Cc1ccccc1)N1CCC(Nc2ncc(C(F)(F)F)c(-c3cnn(C4CCOCC4)c3)n2)CC1` [Example 5, N-(1-(Benzylsulfonyl)piperidin-4-yl)-4-(1-(tetrahydro-2H-pyran-4-yl)-1H-pyrazol-4-yl)-5-(trifluoromethyl)pyrimidin-2-amine] and `N#Cc1cccc(S(=O)(=O)N2CCC(Nc3ncc(C(F)(F)F)c(-c4cnn(C5CCOCC5)c4)n3)CC2)c1` [Example 7, 3-((4-((4-(1-(Tetrahydro-2H-pyran-4-yl)-1H-pyrazol-4-yl)-5-(trifluoromethyl)pyrimidin-2-yl)amino)piperidin-1-yl)sulfonyl)benzo nitrile] cannot be ordered by IC50: under 0.05 µM for the first, under 0.05 µM for the second.

`O=C(Nc1ccc(S(=O)(=O)N2CCC(Nc3ncc(C(F)(F)F)c(-c4cnn(C5CCOCC5)c4)n3)CC2)cc1)N1CCOCC1` [Example 8, N-(4-((4-((4-(1-(Tetrahydro-2H-pyran-4-yl)-1H-pyrazol-4-yl)-5-(trifluoromethyl)pyrimidin-2-yl)amino)piperidin-1-yl)sulfonyl)phenyl)morpholine-4-carboxamide] and `Cn1cc(S(=O)(=O)N2CCC(Nc3ncc(C(F)(F)F)c(-c4cnn(C5CCOCC5)c4)n3)CC2)cn1` [Example 9, N-(1-((1-Methyl-1H-pyrazol-4-yl)sulfonyl)piperidin-4-yl)-4-(1-(tetrahydro-2H-pyran-4-yl)-1H-pyrazol-4-yl)-5-(trifluoromethyl)pyrimidin-2-amine] cannot be ordered by IC50: under 0.05 µM for the first, under 0.05 µM for the second.

`CS(=O)(=O)N1CCC(Nc2ncc(C(F)(F)F)c(-c3cnn(C4CCCCC4)c3)n2)CC1` [Example 12, 4-(1-Cyclohexyl-1H-pyrazol-4-yl)-N-(1-(methylsulfonyl)piperidin-4-yl)-5-(trifluoromethyl)pyrimidin-2-amine] and `CS(=O)(=O)N1CCC(Nc2ncc(C(F)(F)F)c(-c3cnn(-c4ccccc4F)c3)n2)CC1` [Example 13, 4-(1-(2-Fluorophenyl)-1H-pyrazol-4-yl)-N-(1-(methylsulfonyl)piperidin-4-yl)-5-(trifluoromethyl)pyrimidin-2-amine] cannot be ordered by IC50: under 0.05 µM for the first, under 0.05 µM for the second.

First: CS(=O)(=O)N1CCC(Nc2ncc(C(F)(F)F)c(-c3cnn(-c4ccccc4Cl)c3)n2)CC1 [Example 14, 4-(1-(2-Chlorophenyl)-1H-pyrazol-4-yl)-N-(1-(methylsulfonyl)piperidin-4-yl)-5-(trifluoromethyl)pyrimidin-2-amine]
Second: Cc1nn(C2CCN(C)CC2)cc1-c1nc(NC2CCN(S(C)(=O)=O)CC2)ncc1F [Example 15, 5-Fluoro-4-(3-methyl-1-(1-methylpiperidin-4-yl)-1H-pyrazol-4-yl)-N-(1-(methylsulfonyl)piperidin-4-yl)pyrimidin-2-amine]
The IC50 of the first is lower: under 0.05 µM for the first, 0.05 to 0.2 µM for the second.

In the case of `Cc1nn(C2CCN(C)CC2)cc1-c1ccnc(NC2CCN(S(C)(=O)=O)CC2)n1` [Example 16, 4-(3-Methyl-1-(1-methylpiperidin-4-yl)-1H-pyrazol-4-yl)-N-(1-(methylsulfonyl)piperidin-4-yl)pyrimidin-2-amine], the IC50 is reported as 0.05 to 0.2 µM.
